In the NIST ThermoML archive (doi:10.1021/je800046k):

Tests used:
[1] = for surface tension liquid-gas: Pendant drop shape; for mass density: 101 kPa, Liquid
[2] = xn = mol fraction of the nth substance listed; conditions: for surface tension liquid-gas: Pendant drop shape; for mass density: 101 kPa, Liquid

Cc1ccc(C)c(C)c1 [1,2,4-trimethylbenzene]
[1]
Conditions	mass density [kg/m3]	surface tension liquid-gas [mN/m]
298.15 K	871.71	29.3
308.15 K	863.68	28.24
313.15 K	859.58	27.71

Cc1ccc(C)c(C)c1 [1,2,4-trimethylbenzene] + CC(=O)OCC(C)C
[2], x2 = 0
Conditions	mass density [kg/m3]	surface tension liquid-gas [mN/m]
298.15 K	871.71	29.3
308.15 K	863.68	28.24
313.15 K	859.58	27.71

Cc1cc(C)cc(C)c1 [1,3,5-trimethylbenzene]
[1]
Conditions	mass density [kg/m3]	surface tension liquid-gas [mN/m]
298.15 K	861.12	28.05
308.15 K	852.94	27.21
313.15 K	848.82	26.78

Cc1cc(C)cc(C)c1 [1,3,5-trimethylbenzene] + CC(=O)OCC(C)C
[2], x2 = 0
Conditions	mass density [kg/m3]	surface tension liquid-gas [mN/m]
298.15 K	861.12	28.05
308.15 K	852.94	27.21
313.15 K	848.82	26.78

CC(=O)OC(C)C [1-methylethyl ethanoate]
[1]
Conditions	mass density [kg/m3]	surface tension liquid-gas [mN/m]
298.15 K	866.25	21.89
308.15 K	854.54	20.81
313.15 K	848.61	20.29

CC(=O)OC(C)C [1-methylethyl ethanoate] + Cc1cc(C)cc(C)c1
[2], x1 = 1
Conditions	mass density [kg/m3]	surface tension liquid-gas [mN/m]
298.15 K	866.25	21.89
308.15 K	854.54	20.81
313.15 K	848.61	20.29

CC(=O)OC(C)C [1-methylethyl ethanoate] + Cc1ccc(C)c(C)c1
[2], x1 = 1
Conditions	mass density [kg/m3]	surface tension liquid-gas [mN/m]
298.15 K	866.25	21.89
308.15 K	854.54	20.81
313.15 K	848.61	20.29

CC(=O)OCC(C)C [2-methylpropyl ethanoate]
[1]
Conditions	mass density [kg/m3]	surface tension liquid-gas [mN/m]
298.15 K	866.06	23.15
308.15 K	855.51	22.16
313.15 K	850.16	21.64
